The results in this text go back to ChEMBL document CHEMBL5465560, “Selectivity Literature for EUbOPEN Chemogenomic Library” (2024).

Where only a bound is given, the exact number is not on record here.

Test [1] addresses T1, Serine/threonine-protein kinase 17A (Homo sapiens) (UniProt Q9UEE5).
T1 sequence (whole entry): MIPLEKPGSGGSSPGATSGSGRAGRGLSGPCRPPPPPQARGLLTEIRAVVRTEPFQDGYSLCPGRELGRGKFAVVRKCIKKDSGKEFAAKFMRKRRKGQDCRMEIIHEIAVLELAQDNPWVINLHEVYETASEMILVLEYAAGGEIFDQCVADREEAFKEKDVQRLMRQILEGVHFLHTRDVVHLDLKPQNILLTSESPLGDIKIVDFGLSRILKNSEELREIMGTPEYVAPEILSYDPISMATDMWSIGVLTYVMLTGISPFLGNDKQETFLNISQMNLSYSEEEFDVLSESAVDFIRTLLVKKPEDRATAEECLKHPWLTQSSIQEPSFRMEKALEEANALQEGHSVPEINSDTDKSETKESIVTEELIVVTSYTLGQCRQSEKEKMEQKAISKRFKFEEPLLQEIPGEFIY
The test is described as follows: Selectivity interaction (LanthaScreen Eu Kinase Binding Assay) EUB0001632a STK17A. The conditions noted are these: at 10 µM.

Test [2] has as its target Ribosomal protein S6 kinase alpha-6 (Homo sapiens, UniProt Q9UK32). The test is described as follows: Selectivity interaction (Kinase panel (Z-LYTE Assay)) EUB0001632a RPS6KA6. The conditions noted are these: at 10 µM.
Test [3] has as its target T2, Receptor-interacting serine/threonine-protein kinase 4 (Homo sapiens) (UniProt P57078).
T2 sequence (whole entry): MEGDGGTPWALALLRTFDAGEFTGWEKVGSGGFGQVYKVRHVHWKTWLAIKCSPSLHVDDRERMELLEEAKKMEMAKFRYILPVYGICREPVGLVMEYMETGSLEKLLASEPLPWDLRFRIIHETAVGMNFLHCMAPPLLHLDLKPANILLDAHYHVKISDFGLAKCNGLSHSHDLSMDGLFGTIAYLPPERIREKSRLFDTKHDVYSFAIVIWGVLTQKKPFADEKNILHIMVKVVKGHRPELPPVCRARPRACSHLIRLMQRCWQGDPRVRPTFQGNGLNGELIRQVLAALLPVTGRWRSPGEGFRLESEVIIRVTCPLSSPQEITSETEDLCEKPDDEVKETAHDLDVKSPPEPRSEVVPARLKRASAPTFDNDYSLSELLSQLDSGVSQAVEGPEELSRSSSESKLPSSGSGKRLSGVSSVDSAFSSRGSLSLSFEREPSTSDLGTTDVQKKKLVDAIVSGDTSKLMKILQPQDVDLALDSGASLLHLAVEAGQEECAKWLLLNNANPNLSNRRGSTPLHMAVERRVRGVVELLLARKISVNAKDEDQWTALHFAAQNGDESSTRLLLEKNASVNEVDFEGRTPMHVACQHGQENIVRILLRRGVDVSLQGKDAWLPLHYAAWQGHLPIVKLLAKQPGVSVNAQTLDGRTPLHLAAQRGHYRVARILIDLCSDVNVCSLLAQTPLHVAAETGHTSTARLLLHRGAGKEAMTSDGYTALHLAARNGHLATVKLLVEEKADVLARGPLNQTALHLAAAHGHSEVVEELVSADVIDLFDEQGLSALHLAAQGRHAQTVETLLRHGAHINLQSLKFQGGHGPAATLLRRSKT
The test is described as follows: Selectivity interaction (KinomeScan (DiscoverX)) EUB0000607a RIPK4. The conditions noted are these: at 10 µM.

The target of test [4] is Mitogen-activated protein kinase kinase kinase kinase 4 (Homo sapiens, UniProt O95819). The test is described as follows: Selectivity interaction (SelectScreen profiling (Invitrogen)) EUB0000607a MAP4K4. The conditions noted are these: at 2 µM.
The target of test [5] is Cyclin-dependent kinase-like 1 (Homo sapiens) (UniProt Q00532). The test is described as follows: Selectivity interaction (KinomeScan (DiscoverX)) EUB0000666a CDKL1. The conditions noted are these: at 10 µM.
Chain of Cyclin-dependent kinase-like 1 (Homo sapiens) (Q00532 whole entry): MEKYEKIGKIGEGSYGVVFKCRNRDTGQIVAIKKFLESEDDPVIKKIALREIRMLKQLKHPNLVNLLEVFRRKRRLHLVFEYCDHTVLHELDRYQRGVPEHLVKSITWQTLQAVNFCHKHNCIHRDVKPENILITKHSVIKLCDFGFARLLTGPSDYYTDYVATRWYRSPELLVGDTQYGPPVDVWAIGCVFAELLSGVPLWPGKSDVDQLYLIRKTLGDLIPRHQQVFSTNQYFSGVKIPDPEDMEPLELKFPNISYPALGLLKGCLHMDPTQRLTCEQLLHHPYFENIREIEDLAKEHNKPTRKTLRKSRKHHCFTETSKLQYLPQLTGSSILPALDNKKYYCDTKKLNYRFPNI
In test [6] the target is Histone-lysine N-methyltransferase 2A (Homo sapiens) (UniProt Q03164). In words: Selectivity interaction (Methyltransferase screen (Scintillation proximity assays)) EUB0000255b MLL. In general terms: Scintillation proximity formats need no separation of bound from free tracer.
Chain of Histone-lysine N-methyltransferase 2A (Homo sapiens) (Q03164 1-2718 limits assumed): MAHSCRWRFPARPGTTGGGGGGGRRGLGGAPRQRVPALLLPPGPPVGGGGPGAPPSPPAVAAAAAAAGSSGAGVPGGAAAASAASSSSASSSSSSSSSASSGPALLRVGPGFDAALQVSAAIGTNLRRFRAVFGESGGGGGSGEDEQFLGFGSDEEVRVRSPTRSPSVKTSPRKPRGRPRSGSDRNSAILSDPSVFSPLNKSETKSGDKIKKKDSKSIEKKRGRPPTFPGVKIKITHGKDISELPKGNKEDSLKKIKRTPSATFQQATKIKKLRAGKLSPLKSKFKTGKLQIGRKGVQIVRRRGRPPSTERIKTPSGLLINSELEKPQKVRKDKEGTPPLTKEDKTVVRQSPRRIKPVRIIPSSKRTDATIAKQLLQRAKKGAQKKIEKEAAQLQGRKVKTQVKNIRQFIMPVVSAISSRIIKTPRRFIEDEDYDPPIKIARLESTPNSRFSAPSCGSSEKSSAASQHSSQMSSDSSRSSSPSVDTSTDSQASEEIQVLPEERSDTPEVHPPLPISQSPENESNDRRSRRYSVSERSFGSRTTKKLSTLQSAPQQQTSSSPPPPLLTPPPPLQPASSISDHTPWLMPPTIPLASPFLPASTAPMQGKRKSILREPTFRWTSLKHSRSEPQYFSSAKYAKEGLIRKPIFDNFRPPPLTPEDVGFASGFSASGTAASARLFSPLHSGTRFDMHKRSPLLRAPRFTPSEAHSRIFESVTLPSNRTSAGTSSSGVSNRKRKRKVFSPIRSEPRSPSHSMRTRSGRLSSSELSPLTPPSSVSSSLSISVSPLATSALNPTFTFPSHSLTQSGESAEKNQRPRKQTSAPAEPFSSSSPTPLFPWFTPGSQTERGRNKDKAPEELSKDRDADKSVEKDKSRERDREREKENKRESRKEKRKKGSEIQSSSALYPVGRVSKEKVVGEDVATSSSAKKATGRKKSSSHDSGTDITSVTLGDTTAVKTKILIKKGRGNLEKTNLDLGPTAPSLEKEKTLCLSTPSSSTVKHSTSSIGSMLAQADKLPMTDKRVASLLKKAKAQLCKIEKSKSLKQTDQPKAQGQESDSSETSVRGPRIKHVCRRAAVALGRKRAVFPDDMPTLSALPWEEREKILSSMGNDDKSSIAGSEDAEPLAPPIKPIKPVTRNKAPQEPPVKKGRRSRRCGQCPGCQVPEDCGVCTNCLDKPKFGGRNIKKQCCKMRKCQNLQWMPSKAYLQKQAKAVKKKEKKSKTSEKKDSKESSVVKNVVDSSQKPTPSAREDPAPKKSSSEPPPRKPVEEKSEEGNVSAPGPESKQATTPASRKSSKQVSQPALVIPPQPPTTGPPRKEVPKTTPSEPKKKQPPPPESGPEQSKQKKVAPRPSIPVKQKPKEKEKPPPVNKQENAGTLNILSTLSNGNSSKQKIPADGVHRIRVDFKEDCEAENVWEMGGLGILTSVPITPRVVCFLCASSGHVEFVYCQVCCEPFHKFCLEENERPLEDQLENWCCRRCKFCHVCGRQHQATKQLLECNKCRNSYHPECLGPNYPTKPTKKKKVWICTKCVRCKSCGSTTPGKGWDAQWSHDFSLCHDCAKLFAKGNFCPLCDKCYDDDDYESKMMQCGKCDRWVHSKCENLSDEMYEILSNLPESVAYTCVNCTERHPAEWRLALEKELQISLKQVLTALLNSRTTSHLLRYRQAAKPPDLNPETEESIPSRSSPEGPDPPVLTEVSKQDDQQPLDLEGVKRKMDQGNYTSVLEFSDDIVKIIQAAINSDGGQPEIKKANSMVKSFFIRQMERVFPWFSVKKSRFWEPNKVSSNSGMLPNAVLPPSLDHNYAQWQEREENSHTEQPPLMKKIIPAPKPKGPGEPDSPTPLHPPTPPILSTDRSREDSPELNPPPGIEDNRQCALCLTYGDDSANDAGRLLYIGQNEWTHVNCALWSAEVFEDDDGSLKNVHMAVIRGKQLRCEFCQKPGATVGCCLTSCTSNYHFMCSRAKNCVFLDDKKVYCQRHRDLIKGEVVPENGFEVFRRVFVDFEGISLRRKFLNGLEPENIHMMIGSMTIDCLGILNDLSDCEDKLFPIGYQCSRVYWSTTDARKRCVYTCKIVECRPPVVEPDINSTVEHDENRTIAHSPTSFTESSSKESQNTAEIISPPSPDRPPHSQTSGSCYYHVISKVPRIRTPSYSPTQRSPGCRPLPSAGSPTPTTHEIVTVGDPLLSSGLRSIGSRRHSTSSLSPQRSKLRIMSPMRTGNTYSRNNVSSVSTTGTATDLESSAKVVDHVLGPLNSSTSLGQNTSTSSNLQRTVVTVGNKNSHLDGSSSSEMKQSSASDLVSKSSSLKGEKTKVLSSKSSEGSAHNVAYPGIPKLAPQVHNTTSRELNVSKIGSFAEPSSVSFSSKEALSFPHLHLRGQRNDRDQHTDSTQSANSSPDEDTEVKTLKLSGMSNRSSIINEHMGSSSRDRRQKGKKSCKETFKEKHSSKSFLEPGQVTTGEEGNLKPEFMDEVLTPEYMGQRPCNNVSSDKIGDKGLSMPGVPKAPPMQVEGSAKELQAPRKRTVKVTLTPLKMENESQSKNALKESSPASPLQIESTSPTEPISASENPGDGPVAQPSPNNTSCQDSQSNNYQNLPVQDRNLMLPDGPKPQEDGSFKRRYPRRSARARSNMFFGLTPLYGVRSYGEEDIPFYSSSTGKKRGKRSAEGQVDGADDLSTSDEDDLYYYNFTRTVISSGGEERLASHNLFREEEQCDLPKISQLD
Chain of Histone-lysine N-methyltransferase 2A (Homo sapiens) (Q03164 2719-3969 limits assumed): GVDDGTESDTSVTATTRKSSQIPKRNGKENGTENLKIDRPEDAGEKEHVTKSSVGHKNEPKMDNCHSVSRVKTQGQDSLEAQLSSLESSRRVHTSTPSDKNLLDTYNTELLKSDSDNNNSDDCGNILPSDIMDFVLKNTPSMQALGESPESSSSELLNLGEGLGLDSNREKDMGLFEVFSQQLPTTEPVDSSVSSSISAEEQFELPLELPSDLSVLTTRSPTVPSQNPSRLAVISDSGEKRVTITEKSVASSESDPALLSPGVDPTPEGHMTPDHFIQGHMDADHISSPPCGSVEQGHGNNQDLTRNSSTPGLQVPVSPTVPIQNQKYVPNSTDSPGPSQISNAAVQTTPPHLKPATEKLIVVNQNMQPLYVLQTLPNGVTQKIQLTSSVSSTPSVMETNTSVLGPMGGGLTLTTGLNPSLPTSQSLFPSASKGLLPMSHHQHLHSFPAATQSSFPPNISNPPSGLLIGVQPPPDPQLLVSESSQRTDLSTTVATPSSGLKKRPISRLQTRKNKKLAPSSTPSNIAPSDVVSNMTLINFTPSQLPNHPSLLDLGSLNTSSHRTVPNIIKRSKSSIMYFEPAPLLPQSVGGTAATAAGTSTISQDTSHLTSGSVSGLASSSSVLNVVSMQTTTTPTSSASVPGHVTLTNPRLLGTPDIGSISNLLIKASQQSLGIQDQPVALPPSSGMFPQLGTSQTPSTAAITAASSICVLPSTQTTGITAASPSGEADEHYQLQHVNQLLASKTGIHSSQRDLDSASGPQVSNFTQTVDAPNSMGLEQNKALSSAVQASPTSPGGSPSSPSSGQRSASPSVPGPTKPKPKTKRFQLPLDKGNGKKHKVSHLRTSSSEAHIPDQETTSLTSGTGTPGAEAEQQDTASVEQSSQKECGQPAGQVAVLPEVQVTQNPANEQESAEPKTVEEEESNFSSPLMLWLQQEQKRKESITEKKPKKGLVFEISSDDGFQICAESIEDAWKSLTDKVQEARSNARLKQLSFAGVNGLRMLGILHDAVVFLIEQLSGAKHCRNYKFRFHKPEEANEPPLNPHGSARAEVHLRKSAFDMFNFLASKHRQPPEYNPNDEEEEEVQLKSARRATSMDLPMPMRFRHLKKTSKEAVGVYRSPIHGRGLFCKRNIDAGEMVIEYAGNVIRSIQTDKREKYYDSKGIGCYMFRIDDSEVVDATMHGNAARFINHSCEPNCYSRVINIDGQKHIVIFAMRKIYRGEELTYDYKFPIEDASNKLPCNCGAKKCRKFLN
Test [7] addresses Casein kinase II subunit alpha (Homo sapiens, UniProt P68400). The test is described as follows: Selectivity interaction (KinomeScan (DiscoverX)) EUB0000655a CSNK2A1. The conditions noted are these: at 10 µM.
Test [8] deals with 5-hydroxytryptamine receptor 1B (Homo sapiens) (UniProt P28222). The test is described as follows: Selectivity interaction (Panel of kinases, GPCRs, ion channels and transporters (enzymatic assay)) EUB0000266bCl HTR1B.
The target in test [9] is Mitogen-activated protein kinase 7 (Homo sapiens) (UniProt Q13164). The test is described as follows: Selectivity interaction (ActivX KiNativ screen (kinase selectivity in THP-1 cell lysates)) EUB0000639a MAPK7. The class given is subcellular. The conditions noted are these: lysate.
Chain of Mitogen-activated protein kinase 7 (Homo sapiens) (Q13164 2-816 limits assumed): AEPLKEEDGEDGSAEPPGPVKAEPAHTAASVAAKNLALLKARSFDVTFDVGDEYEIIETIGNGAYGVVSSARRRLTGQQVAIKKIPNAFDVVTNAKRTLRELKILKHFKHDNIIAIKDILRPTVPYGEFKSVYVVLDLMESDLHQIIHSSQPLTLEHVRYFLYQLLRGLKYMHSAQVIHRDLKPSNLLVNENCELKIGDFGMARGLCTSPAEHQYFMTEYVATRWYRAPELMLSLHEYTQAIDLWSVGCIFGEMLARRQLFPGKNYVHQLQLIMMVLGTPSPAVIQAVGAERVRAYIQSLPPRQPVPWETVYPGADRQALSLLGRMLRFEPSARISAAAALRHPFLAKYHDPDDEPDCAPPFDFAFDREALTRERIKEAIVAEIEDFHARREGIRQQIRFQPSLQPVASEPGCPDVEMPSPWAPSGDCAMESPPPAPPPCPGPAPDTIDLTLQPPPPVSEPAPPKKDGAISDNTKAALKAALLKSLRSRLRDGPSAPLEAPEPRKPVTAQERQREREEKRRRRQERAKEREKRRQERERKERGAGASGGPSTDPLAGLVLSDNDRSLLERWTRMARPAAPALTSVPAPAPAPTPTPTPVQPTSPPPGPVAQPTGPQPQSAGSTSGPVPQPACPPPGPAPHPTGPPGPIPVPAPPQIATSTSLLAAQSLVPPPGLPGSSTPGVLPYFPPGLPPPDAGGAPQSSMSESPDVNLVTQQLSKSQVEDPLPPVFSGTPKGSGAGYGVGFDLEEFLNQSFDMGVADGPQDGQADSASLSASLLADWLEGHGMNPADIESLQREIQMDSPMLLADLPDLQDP
Test [10] deals with Tyrosine-protein kinase JAK1 (Homo sapiens, UniProt P23458). The test is described as follows: Selectivity interaction (ActivX KiNativ screen (kinase selectivity in THP-1 cell lysates)) EUB0000639a JAK1. Format: subcellular. The conditions noted are these: lysate, at 0.04 µM.
Test [11] has as its target T3, Protein kinase C iota type (Homo sapiens) (UniProt P41743).
T3 sequence (whole entry): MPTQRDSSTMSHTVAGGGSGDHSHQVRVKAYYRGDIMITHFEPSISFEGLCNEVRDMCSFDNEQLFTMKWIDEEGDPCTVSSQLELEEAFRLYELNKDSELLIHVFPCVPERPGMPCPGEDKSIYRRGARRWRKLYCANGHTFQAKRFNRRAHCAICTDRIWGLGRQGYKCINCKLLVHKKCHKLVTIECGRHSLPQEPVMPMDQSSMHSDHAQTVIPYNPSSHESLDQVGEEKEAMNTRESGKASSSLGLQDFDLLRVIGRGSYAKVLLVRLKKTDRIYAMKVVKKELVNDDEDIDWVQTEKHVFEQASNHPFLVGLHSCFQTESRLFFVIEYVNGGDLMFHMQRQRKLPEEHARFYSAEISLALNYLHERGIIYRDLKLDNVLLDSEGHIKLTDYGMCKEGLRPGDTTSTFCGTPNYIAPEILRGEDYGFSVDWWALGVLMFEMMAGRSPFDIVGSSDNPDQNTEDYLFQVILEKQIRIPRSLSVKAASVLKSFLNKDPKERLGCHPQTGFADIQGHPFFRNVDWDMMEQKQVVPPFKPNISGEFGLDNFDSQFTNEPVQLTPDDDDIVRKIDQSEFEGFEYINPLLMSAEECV
The test is described as follows: Selectivity interaction (Millipore kinase profiler) EUB0000124b PRKCI. The conditions noted are these: at 10 µM.

Test [12] addresses Ephrin type-A receptor 5 (Homo sapiens) (UniProt P54756). In words: Selectivity interaction (KinomeScan (DiscoverX)) EUB0001049a EPHA5. The conditions noted are these: at 1 µM.
The target of test [13] is Maternal embryonic leucine zipper kinase (Homo sapiens) (UniProt Q14680). The test is described as follows: Selectivity interaction (KinomeScan (DiscoverX)) EUB0000695a MELK. The conditions noted are these: at 100 nM.
In test [14] the target is Gamma-aminobutyric acid type B receptor subunit 1 (Homo sapiens) (UniProt Q9UBS5). In words: Selectivity interaction (Eurofins CEREP Diversity Profile (receptors and ion channels)) EUB0000279b GABBR1. The conditions noted are these: at 10 µM.
Test [15] addresses Protein polybromo-1 (Homo sapiens) (UniProt Q86U86). The test is described as follows: Selectivity interaction (Bromodomain panel (DSF asssay)) EUB0000270b PBRM1.

For `Cn1cc(-n2cnc3c(NCc4nc5cc(Cl)c(Cl)cc5[nH]4)nc(N4CCOCC4)nc32)cn1`, the % of inhibition in [1] is -13.2%. In [2], this molecule displayed a % of control of 9.97%.

Turning to `CNC(=O)Nc1ccc(-c2nc(N3CC4CCC(C3)O4)c3cnn(C4CCC5(CC4)OCCO5)c3n2)cc1`, in test [3], the % of control worked out at 98%. Further, the % of inhibition in test [4] turned out to be 10%.

Turning to `O=C(NOC[C@H](O)CO)c1ccc(F)c(F)c1Nc1ccc(I)cc1F`, the % of control in test [5] is 78%.

`COCCN1CCC(c2cc(CN(C)C(=O)c3cccc(Oc4ccccc4)c3)ccn2)CC1`: the % activity in test [6] (at 1 µM) is more than 95%; in [6] (at 10 µM), more than 90%.

The molecule `CN(C)CCOc1ccc(-c2nc(-c3ccncc3)c(-c3ccc4c(c3)CC/C4=N\O)[nH]2)cc1` had a % of control in [7] of 79%.

Turning to `CCn1c(-c2nc3cc(C(=O)N4CCCC(N)C4)ccc3n2C)cc2ccccc21` (stereo not given), the pXC50 in test [8] was less than 4.5 M.

Turning to `CC[C@@H]1[C@H](F)C(=O)N[C@@H]1COc1nccc2cc(C(N)=O)c(OC)cc12` [ZIMLOVISERTIB], the % of inhibition is -4.2% in [9] (at 0.01 µM); 1.9% in test [9] (at 0.04 µM); -8.8% in [9] (at 0.2 µM); -11.9% in test [9] (at 1 µM); 15.7% in test [9] (at 5 µM); -11.6% in test [10].

As for `CC(=O)Nc1cccc(-n2c(=O)n(C3CC3)c(=O)c3c(Nc4ccc(I)cc4F)n(C)c(=O)c(C)c32)c1`, in test [11], the % of control was found to be 83%.

Molecule `COc1cc(Nc2nc(C)cc(-c3cnn4nc(OC)ccc34)n2)cc(C(F)(F)F)c1` returned a % of control in test [12] of 96%.

In test [13], `Cc1cc(F)c(C(=O)Nc2cccc(-c3nncn3C(C)C)n2)cc1-n1cnc(C2CC2)c1` registered a % of control of 100%.

For the molecule `CC(=O)c1cc(-c2ccccc2OCC2CC2)c2ncccn12`, the % of control in test [14] came to 100%.

For the molecule `Cc1cc(CN)cc(C)c1-c1ncn(C)c1-c1cncn1C`, in test [15], the dTM was -1.53 K.
